Columns and labels:
[1] = in vitro bone-targeting capacity: binding of conjugates to hydroxyapatite; details: conjugate 1 mg/mL in phosphate buffered saline, 5 mg HA, 1 h at R.T., UV absorbance of supernatant
Method: Conjugates were dissolved in phosphate buffered saline to give a concentration of 1 mg/mL. The conjugate solution (100 μL) and 100 μL of the same buffer were incubated with 5 mg of hydroxyapatite (HA, Bio-Gel HTP, DNA grade; BIO-RAD, Hercules, Calif.) for 1 h at R.T. The solution was then centrifuged. The UV absorbance at certain wavelengths (FITC, 490 nm; 9-Gly-ATC, 450 nm) of the supernatant was monitored with an ELISA plate reader. Background correction was applied. The data presented is the average of three samples. The binding efficiency is expressed as the percentage of conjugates bound to HA (FIG. 4).

[2] = water solubility of lyophilized product; assay type: physicochemical
Method: TC was first transformed into anhydrotetracycline; an amino group was then introduced into the D ring. Stoel, L. et al.(1976) J. Pharm. Sci. 65, 1794-1799; Menachery, M. D. & Cava, M. P. (1984) Can. J. Chem. 62, 2583-2584. Because of the low activity of the aromatic amine, a glycine was coupled to the D ring of the TC molecule in order to introduce a more reactive primary amine by the following procedure. Boc-glycine (192.7 mg, 1.1 mmol), 9-NH2-ATC (514 mg, 1 mmol) and methyl morpholine (MM, 220 μL, 2 mmol) were dissolved in DMF (8 mL) and stirred at 0° C. for 1 h. DCC (227 mg, 1.1 mmol, in 2 mL DCM) was added to the solution and stirred for 1 h. The temperature of the solution was then raised to R.T. and stirred overnight. The resulting suspension was filtered. The solid (product and DCU) was washed three times with ethyl acetate and dried under vacuum. The Boc protection was removed with TFA. DCU was removed to yield 360 mg of 9-Gly-ATC (lyophilized), which is water-soluble.

binding to HA (percentage of conjugates bound to HA) [1]: slightly lower values
water solubility [2]: water-soluble
Compound: Cc1c2c(c(O)c3c(O)c(NC(=O)CN)ccc13)C(=O)C1(O)C(=O)C(C(N)=O)=C(O)C(N(C)C)C1C2 (centres unmarked) [9-Gly-ATC, N-(9-aminoanhydrotetracycline)glycyl amide]

Reference: patent US20050287114A1, “Water-soluble polymeric bone-targeting drug delivery system” (University of Utah Research Foundation, priority 2003, published 2005)
